# Experimental data taken from patent US10660333B2, “Substituted 2-heterocyclylimidazolylcarboxamides as pesticides” (BAYER CROPSCIENCE AKTIENGESELLSCHAFT, priority 2016, dated 2020).
# Like-named read-outs stand apart in the source and are kept apart here.
# Experiments:
# Myzus persicae [1] = experiment: Myzus persicae - spray test; format: in vivo; conditions: for pest or weed control at 500 g/ha: Myzus persicae, foliar, 120 h, read-out: efficacy (aphids killed)
# Experimental: Myzus persicae—Spray Test
# To produce a suitable active ingredient formulation, 1 part by weight of active ingredient is dissolved with the specified parts by weight of solvent and made up to the desired concentration with water containing an emulsifier concentration of 1000 ppm. To produce further test concentrations, the formulation is diluted with emulsifier-containing water.
# Discs of Chinese cabbage leaves (Brassica pekinensis) infested by all stages of the green peach aphid (Myzus persicae) are sprayed with an active ingredient formulation of the desired concentration.
# (§1) After 5 days, the efficacy in % is determined. 100% means that all the aphids have been killed; 0% means that no aphids have been killed.
# [2] = log P by HPLC on reversed-phase (C18) columns, OECD Guideline 117; format: physicochemical
# Myzus persicae [3] = experiment: Myzus persicae - oral test; format: in vivo; conditions: for pest or weed control at 4 ppm: Myzus persicae, 120 h, read-out: efficacy (aphids killed)
# Experimental: To produce a suitable active ingredient formulation, 1 part by weight of active ingredient is dissolved with the specified parts by weight of solvent and made up to the desired concentration with water.
# 50 μl of the active ingredient formulation are transferred into microtitre plates and made up to a final volume of 200 μl with 150 μl of IPL41 insect medium (33%+15% sugar). Subsequently, the plates are sealed with parafilm, which a mixed population of green peach aphids (Myzus persicae) within a second microtitre plate is able to puncture and imbibe the solution.
# as §1
# [4] = 500 g/ha, Chinese cabbage leaf discs, after 5 days
# [5] = reversed-phase (C18) HPLC column, HPLC RP C18, acidic range pH 2.7, 0.1% formic acid/acetonitrile, read-out: logP[a]
# [6] = reversed-phase (C18) HPLC column, HPLC RP C18, neutral range pH 7.8, ammonium hydrogencarbonate/acetonitrile, read-out: logP[n]
# [7] = HPLC RP C18, acidic range pH 2.7, 0.1% formic acid/acetonitrile
# [8] = HPLC RP C18, neutral range pH 7.8, ammonium hydrogencarbonate/acetonitrile
Compound,efficacy (aphids killed) (Myzus persicae [1]; [4]) [%],"logP[a] [2, 7]","logP[n] [2, 8]","efficacy (aphids killed) (Myzus persicae [3]; 4 ppm, oral, after 5 days) [%]",further results
"CN(C(=O)c1cnc(C2=NOC(c3ccccc3)C2)n1C)c1cccnc1 (stereo not shown) [Example I-1-40, N,1-Dimethyl-2-(5-phenyl-4,5-dihydro-1,2-oxazol-3-yl)-N-(pyridin-3-yl)-1H-imidazole-5-carboxamide]",–,–,–,–,"pest or weed control at 500 g/ha (Myzus persicae [1]; [4]): 90%; chromatographic logP [2, 5]: 1.86; chromatographic logP [2, 6]: 1.97; pest or weed control at 4 ppm (Myzus persicae [3]; 4 ppm, oral, after 5 days): 90%"
CN(C(=O)c1cnc(C2CC(c3cc(Cl)cc(Cl)c3)=NO2)n1C)c1cccnc1 (stereo not shown) [Example I-1-17],100,2.39,2.61,100,–
CN(C(=O)c1cnc(C2CC(c3ccccc3C#N)=NO2)n1C)c1cccnc1 (stereo not shown) [Example I-1-18],90,1.34,1.55,100,–
CN(C(=O)c1cnc(C2CC(c3ccc(Cl)cc3Cl)=NO2)n1C)c1cccnc1 (stereo not shown) [Example I-1-13],100,2.23,2.41,100,–
CN(C(=O)c1cnc(C2CC(c3cccc(Cl)c3Cl)=NO2)n1C)c1cccnc1 (stereo not shown) [Example I-1-12],100,2.07,2.25,100,–
CC(C)C1CC(c2ncc(C(=O)N(C)c3cccnc3)n2C)=NO1 (stereo not shown) [Example I-1-37],–,1.65,1.85,–,–
CN(C(=O)c1cnc(C2CC(c3cccnc3)=NO2)n1C)c1cccnc1 (stereo not shown) [Example I-1-27],90,0.64,1.09,100,–
CC1=NOC(C)(c2ncc(C(=O)N(C)c3cccnc3)n2C)C1 (stereo not shown) [Example I-1-31],90,0.53,0.96,90,–
"CN(C(=O)c1cnc(I)n1C)c1cccnc1 [VI-1-1, 2-Iodo-N,1-dimethyl-N-(pyridin-3-yl)-1H-imidazole-5-carboxamide]",–,–,–,–,"chromatographic logP [2, 5]: 0.66; chromatographic logP [2, 6]: 0.97"
CN(C(=O)c1cnc(C2=NOC(C3CCCC3)C2)n1C)c1cccnc1 (stereo not shown) [Example I-1-38],–,2.09,2.21,–,–
CN(C(=O)c1cnc(C2CC(c3ccc(C(F)(C(F)(F)F)C(F)(F)F)cc3)=NO2)n1C)c1cccnc1 (stereo not shown) [Example I-1-35],100,3.01,3.08,90,–
"CN(C(=O)c1cnc(C=NO)n1C)c1cccnc1 [XVIII-1-1, 2-[(Hydroxyimino)methyl]-N,1-dimethyl-N-(pyridin-3-yl)-1H-imidazole-5-carboxamide]",–,–,–,–,"chromatographic logP [2, 6]: 0.51"
"N#Cc1cccc(C=NO)c1 [IX-19, 3-(Hydroxyimino)methylbenzonitrile]",–,–,–,–,"chromatographic logP ([2]; HPLC RP C18, acidic range pH 2.7, 0.1% formic acid/acetonitrile, read-out: logP[a]): 1.2"
"CN(C(=O)c1cnc(C=O)n1C)c1cccnc1 [XIII-1-1, 2-Formyl-N,1-dimethyl-N-(pyridin-3-yl)-1H-imidazole-5-carboxamide]",–,–,–,–,"chromatographic logP [2, 5]: 0.43; chromatographic logP [2, 6]: 0.6"
CN(C(=O)c1cnc(C2=NOC(c3ccc(C(F)(F)F)cc3)C2)n1C)c1cccnc1 (stereo not shown) [Example I-1-41],–,2.49,2.60,–,–
CN(C(=O)c1cnc(C2CC(c3ccc(C#N)cc3)=NO2)n1C)c1cccnc1 (stereo not shown) [Example I-1-20],90,1.42,1.62,100,–
"CN(C(=O)c1cnc(C2=CC(=O)OC2)n1C)c1cccnc1 [Example I-1-47, N,1-Dimethyl-2-(5-oxo-2,5-dihydrofuran-3-yl)-N-(pyridin-3-yl)-1H-imidazole-5-carboxamide]",–,–,–,–,"pest or weed control at 500 g/ha (Myzus persicae [1]; in Brassica rapa): 90%; chromatographic logP [2, 5]: 0.46; chromatographic logP [2, 6]: 0.72; pest or weed control at 4 ppm (Myzus persicae [3]; po): 100%"
Cc1ccc(C2=NOC(c3ncc(C(=O)N(C)c4cccnc4)n3C)C2)cc1 (stereo not shown) [Example I-1-21],100,1.75,1.95,100,–

Compound,efficacy (aphids killed) (Myzus persicae [1]; [4]) [%],"logP[a] [2, 7]","logP[n] [2, 8]","efficacy (aphids killed) (Myzus persicae [3]; 4 ppm, oral, after 5 days) [%]",further results
CN(C(=O)c1cnc(C2CC(c3cccc(Cl)c3)=NO2)n1C)c1cccnc1 (stereo not shown) [Example I-1-10],100,1.88,2.10,100,–
CN(C(=O)c1cnc(C2CC(c3ccc(Cl)cc3)=NO2)n1C)c1cccnc1 (stereo not shown) [Example I-1-11],100,1.97,2.12,100,–
"C=Cc1ncc(C(=O)N(C)c2cccnc2)n1C [VII-1-1, N,1-Dimethyl-N-(pyridin-3-yl)-2-vinyl-1H-imidazole-5-carboxamide]",–,–,–,–,"chromatographic logP [2, 6]: 0.82"
CN(C(=O)c1cnc(C2=NOC(c3cccnc3)C2)n1C)c1cccnc1 (stereo not shown) [Example I-1-43],–,0.56,1.35,–,–
CN(C)C(=O)C1=NOC(c2ncc(C(=O)N(C)c3cccnc3)n2C)C1 (stereo not shown) [Example I-1-6],100,0.77,0.97,100,–
CN(C(=O)c1cnc(C2=NOC(c3ccccn3)C2)n1C)c1cccnc1 (stereo not shown) [Example I-1-42],–,1.09,1.46,–,–
CN(C(=O)c1cnc(C2=NOC(c3ccncc3)C2)n1C)c1cccnc1 (stereo not shown) [Example I-1-44],–,0.45,1.34,–,–
COc1ccc(C2=NOC(c3ncc(C(=O)N(C)c4cccnc4)n3C)C2)cc1 (stereo not shown) [Example I-1-25],–,1.46,1.74,100,–
CN(C(=O)c1cnc(C2CC(c3ccc(OC(F)(F)F)cc3)=NO2)n1C)c1cccnc1 (stereo not shown) [Example I-1-33],90,2.28,2.42,–,–
CN1CCN=C1c1ncc(C(=O)N(C)c2cccnc2)n1C [Example I-1-46],–,–,0.74,–,–
"CN(C(=O)c1cnc(C#N)n1C)c1cccnc1 [XXIII-1-1, 2-Cyano-N,1-dimethyl-N-(pyridin-3-yl)-1H-imidazole-5-carboxamide]",–,–,–,–,"chromatographic logP [2, 5]: 0.63; chromatographic logP [2, 6]: 0.85"
CN(C(=O)c1cnc(C2CC(c3c(Cl)cc(C(F)(F)F)cc3Cl)=NO2)n1C)c1cccnc1 (stereo not shown) [Example I-1-34],90,2.66,2.75,100,–
CN(C(=O)c1cnc(C2CC(c3ccc(Cl)c(Cl)c3)=NO2)n1C)c1cccnc1 (stereo not shown) [Example I-1-16],100,2.27,2.48,100,–
"CN(C(=O)c1cnc(C2=NCCN2)n1C)c1cccnc1 [Example I-1-45, N,1-Dimethyl-N-(pyridin-3-yl)-4′,5′-dihydro-1H,1′H-2,2′-biimidazole-5-carboxamide]",–,–,–,–,"chromatographic logP [2, 6]: 0.54"
CN(C(=O)c1cnc(C2CC(c3cc(Cl)ccc3Cl)=NO2)n1C)c1cccnc1 (stereo not shown) [Example I-1-14],90,2.13,2.32,100,–
CN(C(=O)c1cnc(C2CC(c3c(Cl)cccc3Cl)=NO2)n1C)c1cccnc1 (stereo not shown) [Example I-1-15],100,1.87,2.10,100,–
CN(C)C(=O)C1CC(c2ncc(C(=O)N(C)c3cccnc3)n2C)=NO1 (stereo not shown) [Example I-1-39],–,0.78,1.12,–,–
